According to the NIST ThermoML archive (doi:10.1021/je0503204):

Conditions: Liquid; for speed of sound: Pulse-echo method

CCCCCCCl [1-chlorohexane]
Conditions | mass density [kg/m3] | speed of sound [m/s]
293.15 K, 100 kPa | 878.5 | 1219.1
293.15 K, 5000 kPa | 884.2 | 1240.5
293.15 K, 9910 kPa | 887 | 1264.5
293.15 K, 19720 kPa | 894.7 | 1310
293.15 K, 29530 kPa | 901.8 | 1352.6
293.15 K, 39340 kPa | 908.4 | 1392.6
293.15 K, 49150 kPa | 914.6 | 1430.1
293.15 K, 58960 kPa | 920.4 | 1465.7
293.15 K, 68770 kPa | 925.9 | 1499.3
293.15 K, 78580 kPa | 931.1 | 1531.5
293.15 K, 88390 kPa | 936 | 1562.3
293.15 K, 98200 kPa | 940.7 | 1591.9
293.15 K, 108000 kPa | 945.1 | 1620.6
293.15 K, 117800 kPa | 949.4 | 1648.2
293.15 K, 127600 kPa | 953.4 | 1675.2
293.15 K, 137400 kPa | 957.3 | 1701.5
293.15 K, 147200 kPa | 961.1 | 1727.1
293.15 K, 157100 kPa | 964.7 | 1752.2
293.15 K, 166900 kPa | 968.1 | 1776.7
293.15 K, 176700 kPa | 971.5 | 1800.6
293.15 K, 186500 kPa | 974.7 | 1824
293.15 K, 196300 kPa | 977.9 | 1846.5
313.15 K, 100 kPa | 859.4 | 1140.7
313.15 K, 5000 kPa | 865 | 1166.4
313.15 K, 9910 kPa | 869.8 | 1191.8
313.15 K, 19720 kPa | 878.3 | 1240.1
313.15 K, 29530 kPa | 886.2 | 1285.3
313.15 K, 39340 kPa | 893.4 | 1327.6
313.15 K, 49150 kPa | 900.1 | 1367.4
313.15 K, 58960 kPa | 906.4 | 1405
313.15 K, 68770 kPa | 912.3 | 1440.6
313.15 K, 78580 kPa | 917.9 | 1474.6
313.15 K, 88390 kPa | 923.1 | 1507
313.15 K, 98200 kPa | 928.1 | 1538
313.15 K, 108000 kPa | 932.8 | 1567.9
313.15 K, 117800 kPa | 937.3 | 1596.7
313.15 K, 127600 kPa | 941.6 | 1624.5
313.15 K, 137400 kPa | 945.7 | 1651.4
313.15 K, 147200 kPa | 949.7 | 1677.5
313.15 K, 157100 kPa | 953.5 | 1702.6
313.15 K, 166900 kPa | 957.1 | 1726.9
313.15 K, 176700 kPa | 960.6 | 1750.3
313.15 K, 186500 kPa | 964 | 1772.6
313.15 K, 196300 kPa | 967.2 | 1793.6
333.15 K, 100 kPa | 840.3 | 1068.8
333.15 K, 5000 kPa | 847.1 | 1097.1
333.15 K, 9910 kPa | 851.9 | 1124.4
333.15 K, 19720 kPa | 861.5 | 1176
333.15 K, 29530 kPa | 870.3 | 1224
333.15 K, 39340 kPa | 878.3 | 1268.8
333.15 K, 49150 kPa | 885.7 | 1310.8
333.15 K, 58960 kPa | 892.6 | 1350.4
333.15 K, 68770 kPa | 899 | 1387.7
333.15 K, 78580 kPa | 905 | 1423.2
333.15 K, 88390 kPa | 910.7 | 1457
333.15 K, 98200 kPa | 916 | 1489.4
333.15 K, 108000 kPa | 921.1 | 1520.4
333.15 K, 117800 kPa | 925.9 | 1550.3
333.15 K, 127600 kPa | 930.4 | 1579.1
333.15 K, 137400 kPa | 934.8 | 1607
333.15 K, 147200 kPa | 939 | 1633.9
333.15 K, 157100 kPa | 943 | 1659.9
333.15 K, 166900 kPa | 946.8 | 1684.9
333.15 K, 176700 kPa | 950.5 | 1708.9
333.15 K, 186500 kPa | 954 | 1731.8
333.15 K, 196300 kPa | 957.4 | 1753.5
353.15 K, 100 kPa | 821.3 | 995
353.15 K, 5000 kPa | 828.1 | 1026.2
353.15 K, 9910 kPa | 833.7 | 1055.4
353.15 K, 19720 kPa | 844.5 | 1110.7
353.15 K, 29530 kPa | 854.3 | 1162
353.15 K, 39340 kPa | 863.1 | 1209.8
353.15 K, 49150 kPa | 871.2 | 1254.5
353.15 K, 58960 kPa | 878.7 | 1296.3
353.15 K, 68770 kPa | 885.6 | 1335.8
353.15 K, 78580 kPa | 892.1 | 1373
353.15 K, 88390 kPa | 898.2 | 1408.3
353.15 K, 98200 kPa | 903.8 | 1441.9
353.15 K, 108000 kPa | 909.2 | 1474
353.15 K, 117800 kPa | 914.3 | 1504.7
353.15 K, 127600 kPa | 919.1 | 1534.3
353.15 K, 137400 kPa | 923.7 | 1562.7
353.15 K, 147200 kPa | 928.1 | 1590.1
353.15 K, 157100 kPa | 932.3 | 1616.4
353.15 K, 166900 kPa | 936.3 | 1641.8
353.15 K, 176700 kPa | 940.1 | 1666.1
353.15 K, 186500 kPa | 943.8 | 1689.4
353.15 K, 196300 kPa | 947.4 | 1711.4
373.15 K, 100 kPa | 802.2 | 922.9
373.15 K, 5000 kPa | 809.3 | 957
373.15 K, 9910 kPa | 815.2 | 989.6
373.15 K, 19720 kPa | 827.4 | 1050.4
373.15 K, 29530 kPa | 838.3 | 1105.8
373.15 K, 39340 kPa | 848 | 1156.5
373.15 K, 49150 kPa | 856.9 | 1203.2
373.15 K, 58960 kPa | 865 | 1246.3
373.15 K, 68770 kPa | 872.5 | 1286.9
373.15 K, 78580 kPa | 879.4 | 1324.8
373.15 K, 88390 kPa | 885.9 | 1360.8
373.15 K, 98200 kPa | 891.9 | 1395.1
373.15 K, 108000 kPa | 897.6 | 1427.9
373.15 K, 117800 kPa | 903 | 1459.6
373.15 K, 127600 kPa | 908.1 | 1490.1
373.15 K, 137400 kPa | 912.9 | 1519.6
373.15 K, 147200 kPa | 917.5 | 1548.1
373.15 K, 157100 kPa | 921.9 | 1575.5
373.15 K, 166900 kPa | 926.1 | 1601.7
373.15 K, 176700 kPa | 930.1 | 1626.5
373.15 K, 186500 kPa | 934 | 1649.5
373.15 K, 196300 kPa | 937.7 | 1670.6
393.15 K, 100 kPa | 780.7 | 853.3
393.15 K, 5000 kPa | 789.2 | 893.8
393.15 K, 9910 kPa | 796.7 | 928.6
393.15 K, 19720 kPa | 810.5 | 993.2
393.15 K, 29530 kPa | 822.6 | 1051.8
393.15 K, 39340 kPa | 833.3 | 1105.2
393.15 K, 49150 kPa | 843 | 1154.2
393.15 K, 58960 kPa | 851.8 | 1199.4
393.15 K, 68770 kPa | 859.8 | 1241.4
393.15 K, 78580 kPa | 867.2 | 1280.8
393.15 K, 88390 kPa | 874.1 | 1318
393.15 K, 98200 kPa | 880.6 | 1353.3
393.15 K, 108000 kPa | 886.6 | 1387.2
393.15 K, 117800 kPa | 892.3 | 1419.7
393.15 K, 127600 kPa | 897.6 | 1451.2
393.15 K, 137400 kPa | 902.7 | 1481.6
393.15 K, 147200 kPa | 907.5 | 1511.1
393.15 K, 157100 kPa | 912.1 | 1539.5
393.15 K, 166900 kPa | 916.4 | 1566.9
393.15 K, 176700 kPa | 920.6 | 1592.8
393.15 K, 186500 kPa | 924.6 | 1617.2
393.15 K, 196300 kPa | 928.4 | 1639.7
413.15 K, 100 kPa | 759.1 | 784
413.15 K, 5000 kPa | 769.6 | 829.4
413.15 K, 9910 kPa | 777.6 | 867.7
413.15 K, 19720 kPa | 793.3 | 938.1
413.15 K, 29530 kPa | 806.8 | 1001.1
413.15 K, 39340 kPa | 818.6 | 1057.7
413.15 K, 49150 kPa | 829.2 | 1109
413.15 K, 58960 kPa | 838.7 | 1155.8
413.15 K, 68770 kPa | 847.4 | 1198.9
413.15 K, 78580 kPa | 855.3 | 1239.1
413.15 K, 88390 kPa | 862.7 | 1276.9
413.15 K, 98200 kPa | 869.5 | 1312.8
413.15 K, 108000 kPa | 875.8 | 1347.4
413.15 K, 117800 kPa | 881.8 | 1380.6
413.15 K, 127600 kPa | 887.4 | 1413
413.15 K, 137400 kPa | 892.7 | 1444.5
413.15 K, 147200 kPa | 897.8 | 1475.2
413.15 K, 157100 kPa | 902.5 | 1504.9
413.15 K, 166900 kPa | 907.1 | 1533.7
413.15 K, 176700 kPa | 911.4 | 1560.9
413.15 K, 186500 kPa | 915.6 | 1586.4
413.15 K, 196300 kPa | 919.5 | 1609.7
